Patent US20080269213A1, “8-Hydroxyquinoline compounds and methods thereof” (Wyeth, priority 2006, published 2008)
pIC50: −log10 of the molar value. Several values for one entry are separate records, joined by “and”; a condition that tells them apart may be missing. Equal entries are not always repeated. Where two headings read alike, the source gives them in different places.

How the values were obtained:
[1] = target: T1, Agg-1 (Homo sapiens, UniProt O75173); experiment: Agg-1 FRET assay; type: biochemical; conditions: for inhibition at 66.7 µM: @ 66700 nM; for inhibition at 7.4 µM: @ 7400 nM; for pIC50: read-out: Agg1 IC50; for inhibition at 0.8 µM: @ 800 nM; for inhibition at […]: @ 2500 nM
T1 sequence (O75173 213-837): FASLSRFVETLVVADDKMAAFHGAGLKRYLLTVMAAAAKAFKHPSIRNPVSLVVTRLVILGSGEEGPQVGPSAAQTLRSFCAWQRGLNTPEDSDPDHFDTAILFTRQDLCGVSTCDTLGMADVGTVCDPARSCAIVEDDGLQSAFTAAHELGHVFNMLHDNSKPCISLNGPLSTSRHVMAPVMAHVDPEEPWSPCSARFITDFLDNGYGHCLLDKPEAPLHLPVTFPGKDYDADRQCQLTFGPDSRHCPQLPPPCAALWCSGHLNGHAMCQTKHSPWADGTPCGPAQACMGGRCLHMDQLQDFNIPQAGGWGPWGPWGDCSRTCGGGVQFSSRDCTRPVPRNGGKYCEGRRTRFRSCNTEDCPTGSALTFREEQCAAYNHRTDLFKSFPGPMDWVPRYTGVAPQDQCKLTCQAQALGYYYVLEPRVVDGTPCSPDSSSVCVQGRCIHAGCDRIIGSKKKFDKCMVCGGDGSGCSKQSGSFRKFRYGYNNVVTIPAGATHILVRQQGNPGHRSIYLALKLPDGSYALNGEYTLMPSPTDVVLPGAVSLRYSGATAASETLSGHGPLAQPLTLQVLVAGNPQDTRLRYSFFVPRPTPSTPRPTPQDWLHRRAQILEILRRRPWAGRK
Source text: The Agg-1/Agg-2 FRET data for N-[(8-hydroxyquinolin-2-yl)(phenyl)methyl]-2-phenoxyacetamide and 2-{[(phenoxyacetyl)amino](phenyl)methyl}quinolin-8-yl phenoxyacetate is presented in Table 1.

[2] = target: T2, recombinant human Aggrecanase-2 Agg2-Phe628 (Homo sapiens, UniProt Q9UNA0); experiment: Aggrecanase 2 in vitro enzyme assay (Agg-2 FRET, quenched fluorescent peptide substrate); type: biochemical; design: purified recombinant human Aggrecanase-2 Agg2-Phe628 (MW=41,737); This is a truncated form of full-length human aggrecanase-2; made in house; host or cells: CHO cells; conditions: for Agg-2 FRET Median PCT INHIB: concentration not given
T2 sequence (Q9UNA0 262-628 limits assumed): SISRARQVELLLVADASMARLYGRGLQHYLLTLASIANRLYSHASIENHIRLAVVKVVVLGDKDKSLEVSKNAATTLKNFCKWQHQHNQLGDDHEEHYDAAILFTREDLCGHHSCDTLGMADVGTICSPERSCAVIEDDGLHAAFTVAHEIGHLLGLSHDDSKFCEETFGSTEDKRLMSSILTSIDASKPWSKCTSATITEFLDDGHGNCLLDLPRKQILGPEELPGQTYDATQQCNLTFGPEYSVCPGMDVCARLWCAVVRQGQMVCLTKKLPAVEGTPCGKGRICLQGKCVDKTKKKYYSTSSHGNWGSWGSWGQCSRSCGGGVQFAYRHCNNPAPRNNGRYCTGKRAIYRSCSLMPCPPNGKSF
Procedure, shortened: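 Continuous FRET assay with purified truncated human Aggrecanase-2 Agg2-Phe628 (CHO-expressed, 0.5 μg/ml final) and brevican-derived Abz/Dnp peptide (25 μM final) in 50 mM HEPES pH 7.5, 100 mM NaCl, 5 mM CaCl2, 0.1% CHAPS, 5% glycerol. Enzyme preincubated with compound before substrate; fluorescence (ex 340/em 420 nm) followed kinetically 40 min at 30 °C.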

[3] = read-out: Agg-2 FRET Median IC50

Row | SMILES | pIC50 [1] | pIC50 ([2]; read-out: Agg2 IC50) | also measured
1 | CCCCN(CCCC)c1ccc(C(NC(=O)COc2ccccc2)c2cc(Cl)c3cccnc3c2O)cc1 (stereo not drawn) [Example 136, N-{(5-chloro-8-hydroxyquinolin-7-yl)[4-(dibutylamino)phenyl]methyl}-2-phenoxyacetamide] | – | – | inhibition at 66.7 µM ([1]; read-out: Agg1 %): 40%; inhibition at 33.3 µM ([2]; @ 33300 nM): 52%
2 | O=C(COc1ccccc1)NC(c1ccc(C#Cc2ccccc2)cc1)c1cc(Cl)c2cccnc2c1O (stereo not drawn) [Example 141, N-{(5-chloro-8-hydroxyquinolin-7-yl)[4-(phenylethynyl)phenyl]methyl}-2-phenoxyacetamide] | – | – | inhibition at 7.4 µM ([1]; read-out: Agg1 %): 48%; inhibition at […] ([2]; @ 1200 nM): 58%; Agg-2 FRET Median PCT INHIB [2]: 50%
3 | CC(C)(C)c1csc(-c2ccc(C(NC(=O)COc3ccccc3)c3cc(Cl)c4cccnc4c3O)cc2)n1 (stereo not drawn) [Example 146, N-[[4-(4-tert-butyl-1,3-thiazol-2-yl)phenyl](5-chloro-8-hydroxyquinolin-7-yl)methyl]-2-phenoxyacetamide] | – | – | inhibition at 66.7 µM ([1]; read-out: Agg1 %): 42%; inhibition at 11 µM ([2]; @ 11000 nM): 49%
4 | O=C(COc1ccccc1)NC(c1cc2n(n1)CSC2)c1cc(Cl)c2cccnc2c1O (stereo not drawn) [Example 174, N-[(5-chloro-8-hydroxyquinolin-7-yl)(4H-pyrazolo[1,5-c][1,3]thiazol-2-yl)methyl]-2-phenoxyacetamide] | – | – | Agg1 % ([1]; @ 7000-22000 nM): 42% @ 7000-22000; inhibition at […] ([2]; @ 1900 nM): 40%
5 | O=C(COc1ccccc1)NC(c1cn2c(n1)COCC2)c1cc(Cl)c2cccnc2c1O (stereo not drawn) [Example 178, N-[(5-chloro-8-hydroxyquinolin-7-yl)(5,6-dihydro-8H-imidazo[2,1-c][1,4]oxazin-2-yl)methyl]-2-phenoxyacetamide] | < 4.70 | 5.21 | –
6 | C=CC(NC(=O)COc1ccccc1)c1cc(Cl)c2cccnc2c1O (stereo not drawn) [Example 186, N-[1-(5-chloro-8-hydroxyquinolin-7-yl)prop-2-en-1-yl]-2-phenoxyacetamide] | – | – | inhibition at 0.8 µM ([1]; read-out: Agg1 %): 50%; inhibition at 3.7 µM ([2]; @ 3700 nM): 38%
7 | Nc1cccc(C(NC(=O)COc2ccccc2)c2cc(Cl)c3cccnc3c2O)c1 (stereo not drawn) [Example 202, N-[(3-aminophenyl)(5-chloro-8-hydroxyquinolin-7-yl)methyl]-2-phenoxyacetamide] | < 5.70 | 5.34 | pIC50 [2, 3]: 5.34 and 5.36
8 | CS(=O)(=O)Nc1cccc(C(NC(=O)COc2ccccc2)c2cc(Cl)c3cccnc3c2OS(C)(=O)=O)c1 (stereo not drawn) [Example 203, 5-chloro-7-{{3-[(methylsulfonyl)amino]phenyl}[(phenoxyacetyl)amino]methyl}quinolin-8-yl methanesulfonate] | < 4.70 | < 4.52 | Agg-2 FRET Median PCT INHIB [2]: 20%
9 | O=C(O)Cc1cccc(C(NC(=O)COc2ccccc2)c2cc(Cl)c3cccnc3c2O)c1 (stereo not drawn) [Example 208, (3-{(5-chloro-8-hydroxyquinolin-7-yl)[(phenoxyacetyl)amino]methyl}phenyl)acetic acid] | – | 5.35 | inhibition at […] ([1]; read-out: Agg1 %): 37%; pIC50 [2, 3]: 5.35
10 | O=C(COc1ccc(Br)cc1)NC(c1ccccc1)c1cc(Cl)c2cccnc2c1O (stereo not drawn) [Example 209, 2-(4-bromophenoxy)-N-[(5-chloro-8-hydroxyquinolin-7-yl)(phenyl)methyl]acetamide] | – | 4.74 | inhibition at […] ([1]; read-out: Agg1 %): 44%

Second part, led by results:

Row | pIC50 [1] | pIC50 ([2]; read-out: Agg2 IC50) | SMILES | also measured
11 | 5.24 | 5.92 | O=C(COc1ccccc1)NC(c1ccc(-n2cccn2)cc1)c1cc(Cl)c2cccnc2c1O (stereo not drawn) [Example 145, N-{(5-chloro-8-hydroxyquinolin-7-yl)[4-(1H-pyrazol-1-yl)phenyl]methyl}-2-phenoxyacetamide] | –
12 | 5.33 | 5.97 | O=C(COc1ccccc1)NC(c1ccc(-c2csnn2)cc1)c1cc(Cl)c2cccnc2c1O (stereo not drawn) [Example 147, N-{(5-chloro-8-hydroxyquinolin-7-yl)[4-(1,2,3-thiadiazol-4-yl)phenyl]methyl}-2-phenoxyacetamide] | pIC50 [2, 3]: 5.97
13 | – | 5.64 | COc1ccc2cc(C(NC(=O)COc3ccccc3)c3cc(Cl)c4cccnc4c3O)ccc2c1 (stereo not drawn) [Example 165, N-[(5-chloro-8-hydroxyquinolin-7-yl)(6-methoxy-2-naphthyl)methyl]-2-phenoxyacetamide] | inhibition at 22.2 µM ([1]; @ 22200 nM, read-out: Agg1 %): 50%
14 | – | 5.92 to 6.40 | O=C(COc1ccccc1)NC(c1cc2ccccc2o1)c1cc(Cl)c2cccnc2c1O (stereo not drawn) [Example 168, N-[1-benzofuran-2-yl(5-chloro-8-hydroxyquinolin-7-yl)methyl]-2-phenoxyacetamide] | inhibition at 66.7 µM ([1]; read-out: Agg1 %): 49%
15 | – | 5.62 | O=C(COc1ccccc1)NC(c1ccc2c(c1)CCO2)c1cc(Cl)c2cccnc2c1O (stereo not drawn) [Example 170, N-[(5-chloro-8-hydroxyquinolin-7-yl)(2,3-dihydro-1-benzofuran-5-yl)methyl]-2-phenoxyacetamide] | inhibition at 7.4 µM ([1]; read-out: Agg1 %): 43%
16 | – | 5.85 | CC1(C)CCc2cc(C(NC(=O)COc3ccccc3)c3cc(Cl)c4cccnc4c3O)ccc2O1 (stereo not drawn) [Example 171, N-[(5-chloro-8-hydroxyquinolin-7-yl)(2,2-dimethyl-3,4-dihydro-2H-chromen-6-yl)methyl]-2-phenoxyacetamide] | inhibition at 66.7 µM ([1]; read-out: Agg1 %): 55%
17 | < 4.70 | 5.89 | Cn1nnc2cc(C(NC(=O)COc3ccccc3)c3cc(Cl)c4cccnc4c3O)ccc21 (stereo not drawn) [Example 177, N-[(5-chloro-8-hydroxyquinolin-7-yl)(1-methyl-1H-1,2,3-benzotriazol-5-yl)methyl]-2-phenoxyacetamide] | pIC50 [2, 3]: 5.89
18 | < 4.70 | ~5.60 | O=C(COc1ccccc1)NC(c1cc2n(n1)CCC2)c1cc(Cl)c2cccnc2c1O (stereo not drawn) [Example 179, N-[(5-chloro-8-hydroxyquinolin-7-yl)(5,6-dihydro-4H-pyrrolo[1,2-b]pyrazol-2-yl)methyl]-2-phenoxyacetamide] | –
19 | < 4.17 | ~5.60 | O=C(NC(c1ccccn1)c1cc(Cl)c2cccnc2c1O)OCc1ccccc1 (stereo not drawn) [Example 183, benzyl [(5-chloro-8-hydroxyquinolin-7-yl)(pyridin-2-yl)methyl]carbamate] | Agg-2 FRET Median PCT INHIB [2]: 50%
20 | – | 5.60 | C/C=C/C(NC(=O)COc1ccccc1)c1cc(Cl)c2cccnc2c1O (stereo not drawn) [Example 187, N-[(2E)-1-(5-chloro-8-hydroxyquinolin-7-yl)but-2-en-1-yl]-2-phenoxyacetamide] | inhibition at 0.8 µM ([1]; read-out: Agg1 %): 40%; pIC50 [2, 3]: 5.60
21 | < 4.70 | 5.42 | CC(=O)Nc1cccc(C(NC(=O)COc2ccccc2)c2cc(Cl)c3cccnc3c2O)c1 (stereo not drawn) [Example 204, N-[[3-(acetylamino)phenyl](5-chloro-8-hydroxyquinolin-7-yl)methyl]-2-phenoxyacetamide] | pIC50 [2, 3]: 5.42
22 | ~4.70 | 5.83 | O=C(CCl)Nc1cccc(C(NC(=O)COc2ccccc2)c2cc(Cl)c3cccnc3c2O)c1 (stereo not drawn) [Example 205, 2-chloro-N-(3-{(5-chloro-8-hydroxyquinolin-7-yl)[(phenoxyacetyl)amino]methyl}phenyl)acetamide] | –
23 | 4.17 to 4.66 | 5.54 | CN(C)CC(=O)Nc1cccc(C(NC(=O)COc2ccccc2)c2cc(Cl)c3cccnc3c2O)c1 (stereo not drawn) [Example 206, N-(3-{(5-chloro-8-hydroxyquinolin-7-yl)[(phenoxyacetyl)amino]methyl}phenyl)-N2,N2-dimethylglycinamide] | –
24 | 4.17 to 4.66 | 5.46 | CNCC(=O)Nc1cccc(C(NC(=O)COc2ccccc2)c2cc(Cl)c3cccnc3c2O)c1 (stereo not drawn) [Example 207, N-(3-{(5-chloro-8-hydroxyquinolin-7-yl)[(phenoxyacetyl)amino]methyl}phenyl)-N-2-methylglycinamide] | –
